Data published in patent US8487108B2, “Piperidinyl carbamate intermediates for the synthesis of aspartic protease inhibitors” (Vitae Pharmaceuticals, Inc., priority 2005, dated 2013).

target: T1, trypsin-activated recombinant human renin (Homo sapiens, UniProt P00797); assay: Renin fluorescence assay (internally quenched peptide substrate); type: biochemical; settings: compounds I*
T1 sequence (P00797 67-406): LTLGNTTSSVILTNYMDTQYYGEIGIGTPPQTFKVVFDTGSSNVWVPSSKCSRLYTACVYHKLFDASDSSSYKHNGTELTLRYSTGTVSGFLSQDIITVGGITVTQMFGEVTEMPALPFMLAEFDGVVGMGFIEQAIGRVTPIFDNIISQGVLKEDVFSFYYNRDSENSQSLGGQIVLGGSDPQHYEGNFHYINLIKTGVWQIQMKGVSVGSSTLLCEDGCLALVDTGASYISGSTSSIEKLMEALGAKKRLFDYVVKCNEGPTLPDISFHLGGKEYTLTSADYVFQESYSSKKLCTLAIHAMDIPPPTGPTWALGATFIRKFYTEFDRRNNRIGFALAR
Experimental: The sequence of this peptide corresponds to the sequence of human angiotensinogen. The following test protocol can be used. All reactions are carried out in a flat bottom white opaque microtiter plate. A 4 μL aliquot of 400 μM renin substrate (DABCYL-γ-[…]) in 192 μL assay buffer (50 mM BES, 150 mM NaCl, 0.25 mg/mL bovine serum albumin, pH7.0) is added to 4 μL of test compound in DMSO at various concentrations ranging from 10 μM to 1 nM final concentrations. Next, 100 μL of trypsin-activated recombinant human renin (final enzyme concentration of 0.2-2 nM) in assay buffer is added, and the solution is mixed by pipetting. The increase in fluorescence at 495 nm (excitation at 340 nm) is measured for 60-360 minutes at rt using a Perkin-Elmer Fusion microplate reader. The slope of a linear portion of the plot of fluorescence-increase as a function of time is then determined, and the rate is used for calculating percent inhibition in relation to uninhibited control. […] (Wang G. T. et al. Anal. Biochem. 1993, 210, 351; Nakamura, N. et al. J. Biochem. (Tokyo) 1991, 109, 741; Murakami, K. et al. Anal Biochem. 1981, 110, 232).

Compound	IC50 [nM]
CNC[C@H](CC1CCCCC1)NC(=O)N1CCC[C@@H]([C@@H](OCCNC(=O)OC)c2ccccc2)C1 (mixture of isomers) [I*-2a, methyl 2-((R)—((R)-1-((±)-1-cyclohexyl-3-(methylamino)propan-2-ylcarbamoyl)piperidin-3-yl)(phenyl)methoxy)ethylcarbamate]	< 10
COC(=O)NCCO[C@@H](c1cccc(Cl)c1)[C@@H]1CCCN(C(=O)N[C@H]2CNC[C@@H]2CC(C)C)C1 (relative stereo) [I*-11a, methyl 2-((R)-(3-chlorophenyl)((R)-1-((3R*,4S*)-4-isobutylpyrrolidin-3-ylcarbamoyl)piperidin-3-yl)methoxy)ethylcarbamate]	< 50
CNC[C@H](CCCOC)NC(=O)N1CCC[C@@H]([C@@H](OCCNC(=O)OC)c2cccc(Cl)c2)C1 [I*-1a]	> 50
CNC[C@H](CC1CCOCC1)NC(=O)N1CCC[C@@H]([C@@H](OCCNC(=O)OC)c2ccccc2)C1 [I*-3a, methyl 2-((R)—((R)-1-((S)-4-(methylamino)-3-(tetrahydro-2H-pyran-4-yl)propan-2-ylcarbamoyl)piperidin-3-yl)(phenyl)methoxy)ethylcarbamate]	< 50
COC(=O)NCCO[C@@H](c1cccc(F)c1)[C@@H]1CCCN(C(=O)N[C@H](CN)CC2CCCCC2)C1 [I*-4a, methyl 2-((R)-((R)-1-((S)-1-amino-3-cyclohexylpropan-2-ylcarbamoyl)piperidin-3-yl)(3-fluorophenyl)methoxy)ethylcarbamate]	< 1
CNC[C@H](CC1CCCC1)NC(=O)N1CCC[C@@H]([C@@H](OCCNC(=O)OC)c2cccc(F)c2)C1 [I*-5a, methyl 2-((R)—((R)-1-((S)-1-cyclopentyl-3-(methylamino)propan-2-ylcarbamoyl)piperidin-3-yl)(3-fluorophenyl)methoxy)ethylcarbamate]	< 10
CNC[C@H](CC1CCOC1)NC(=O)N1CCC[C@@H]([C@@H](OCCNC(=O)OC)c2cccc(F)c2)C1 (stereo partly drawn) [I*-6a, methyl 2-((R)-(3-fluorophenyl)((3R)-1-((S)-1-(methylamino)-3-(tetrahydrofuran-3-yl)propan-2-ylcarbamoyl)piperidin-3-yl)methoxy)ethylcarbamate]	> 50
CCC(C)(C)C[C@@H](CNC)NC(=O)N1CCC[C@@H]([C@@H](OCCNC(=O)OC)c2cccc(F)c2)C1 [I*-7a, methyl 2-((R)-((R)-1-((S)-4,4-dimethyl-1-(methylamino)hexan-2-ylcarbamoyl)piperidin-3-yl)(3-fluorophenyl)methoxy)ethylcarbamate]	< 10
CNC[C@H](CC1CCCCC1)NC(=O)N1CCC[C@@H]([C@@H](OCCNC(=O)OC)c2cccs2)C1 [I*-9a, methyl 2-((R)-((R)-1-((S)-1-cyclohexyl-3-(methylamino)propan-2-ylcarbamoyl)piperidin-3-yl)(thiophen-2-yl)methoxy)ethylcarbamate]	< 1
CNC[C@H](CC1CCCCC1)NC(=O)N1CCC[C@@H]([C@@H](OCCNC(=O)OC)C2CCCCC2)C1 [I*-10a, methyl 2-((S)-cyclohexyl((R)-1-((S)-1-cyclohexyl-3-(methylamino)propan-2-ylcarbamoyl)piperidin-3-yl)methoxy)ethylcarbamate]	< 10
CNC[C@H](CC1CCCCC1)NC(=O)N1CCC[C@@H]([C@H](OCCNC(=O)OC)c2nccs2)C1 [I*-12a, methyl 2-((S)-((R)-1-((S)-1-cyclohexyl-3-(methylamino)propan-2-ylcarbamoyl)piperidin-3-yl)(thiazol-2-yl)methoxy)ethylcarbamate]	> 50
CNC[C@H](CC1CCCCC1)NC(=O)N1CCC[C@@H]([C@@H](OCCNC(=O)OC)c2nccs2)C1 [I*-13a, methyl 2-((R)-((R)-1-((S)-1-cyclohexyl-3-(methylamino)propan-2-ylcarbamoyl)piperidin-3-yl)(thiazol-2-yl)methoxy)ethylcarbamate]	< 20
COCC(C)(C)C[C@H](N)CNC(=O)N1CCC[C@@H]([C@@H](OCCNC(=O)OC)c2cccc(F)c2)C1 [I*-14a, methyl 2-((R)—((R)-1-((S)-2-amino-5-methoxy-4,4-dimethylpentylcarbamoyl)piperidin-3-yl)(3-fluorophenyl)methoxy)ethylcarbamate]	> 50
CNC[C@H](CC1CCOCC1)NC(=O)N1CCC[C@@H]([C@@H](OCCNC(=O)OC)c2cccs2)C1 [I*-15a, methyl 2-((R)-((R)-1-((S)-1-(methylamino)-3-(tetrahydro-2H-pyran-4-yl)propan-2-ylcarbamoyl)piperidin-3-yl)(thiophen-2-yl)methoxy)ethylcarbamate]	> 50
CNC[C@H](CC1CCOCC1)NC(=O)N1CCC[C@@H]([C@H](OCCNC(=O)OC)c2cccs2)C1 [I*-16a, methyl 2-((S)-((R)-1-((S)-1-(methylamino)-3-(tetrahydro-2H-pyran-4-yl)propan-2-ylcarbamoyl)piperidin-3-yl)(thiophen-2-yl)methoxy)ethylcarbamate]	> 50
CNC[C@H](CC1CCCCC1)NC(=O)N1CCC[C@@H]([C@@H](OCCNC(=O)OC)c2cccc(C)c2)C1 [I*-18a, methyl 2-((R)-((R)-1-((S)-1-cyclohexyl-3-(methylamino)propan-2-ylcarbamoyl)piperidin-3-yl)(m-tolyl)methoxy)ethylcarbamate]	< 1
CNC[C@@H](NC(=O)N1CCC[C@@H]([C@@H](OCCNC(=O)OC)c2ccccc2)C1)[C@@H](O)C1CCCCC1 [I*-19a, methyl 2-((R)—((R)-1-((1S,2R)-1-cyclohexyl-1-hydroxy-3-(methylamino)propan-2-ylcarbamoyl)piperidin-3-yl)(phenyl)methoxy)ethylcarbamate]	< 10

Other lines, results leading:

IC50 [nM]	Compound
< 10	COC(=O)NCCO[C@@H](c1cccc(Cl)c1)[C@@H]1CCCN(C(=O)N[C@@H]2CNCC[C@H]2CC2CCC2)C1 (relative stereo) [I*-44a, methyl 2-((R)-(3-chlorophenyl)((R)-1-((3S*,4R*)-4-(cyclobutylmethyl)piperidin-3-ylcarbamoyl)piperidin-3-yl)methoxy)ethylcarbamate]
< 20	CNC[C@@H](C[C@H]1CCCC[C@@H]1O)NC(=O)N1CCC[C@@H]([C@@H](OCCNC(=O)OC)c2cccc(Cl)c2)C1 (relative stereo) [I*-104a, methyl 2-((R)-(3-chlorophenyl)((R)-1-((R)-1-((1R*,2S*)-2-hydroxycyclohexyl)-3-(methylamino)propan-2-ylcarbamoyl)piperidin-3-yl)methoxy)ethylcarbamate]
< 10	CNC[C@H](C[C@H]1CCCC[C@@H]1O)NC(=O)N1CCC[C@@H]([C@@H](OCCNC(=O)OC)c2cccc(Cl)c2)C1 (relative stereo) [I*-105a, methyl 2-((R)-(3-chlorophenyl)((R)-1-((S)-1-((1R,2S)-2-hydroxycyclohexyl)-3-(methylamino)propan-2-ylcarbamoyl)piperidin-3-yl)methoxy)ethylcarbamate]
< 50	CNC[C@H](CC1CCOCC1)NC(=O)N1CCC[C@@H]([C@@H](OCCNC(=O)OC)c2cccc(C)c2)C1 [I*-20a, methyl 2-((R)-((R)-1-((S)-1-(methylamino)-3-(tetrahydro-2H-pyran-4-yl)propan-2-ylcarbamoyl)piperidin-3-yl)(m-tolyl)methoxy)ethylcarbamate]
< 10	CNC[C@H](C[C@H]1CCCCOC1)NC(=O)N1CCC[C@@H]([C@@H](OCCNC(=O)OC)c2ccccc2)C1 [I*-21a, Methyl 2-((R)—((R)-1-((S)-1-(methylamino)-3-((R)-oxepan-3-yl)propan-2-ylcarbamoyl)piperidin-3-yl)(phenyl)methoxy)ethylcarbamate]
> 50	CNC[C@H](CC1CCCCC1)NC(=O)N1CCC[C@@H]([C@H](CCCNC(=O)OC)c2cccc(F)c2)C1 [I*-22a, methyl (S)-4-((S)-1-((S)-1-cyclohexyl-3-(methylamino)propan-2-ylcarbamoyl)piperidin-3-yl)-4-(3-fluorophenyl)butylcarbamate]
< 10	CNC[C@H](CC1CCCCC1)NC(=O)N1CCC[C@@H]([C@@H](CCCNC(=O)OC)c2cccc(F)c2)C1 [I*-23a, methyl (R)-4-((S)-1-((S)-1-cyclohexyl-3-(methylamino)propan-2-ylcarbamoyl)piperidin-3-yl)-4-(3-fluorophenyl)butylcarbamate]
< 1	CNC[C@H](CC1CCCC1)NC(=O)N1CCC[C@@H]([C@@H](OCCNC(=O)OC)c2cc(F)ccc2C)C1 [I*-24a, methyl 2-((R)—((R)-1-((S)-1-cyclopentyl-3-(methylamino)propan-2-ylcarbamoyl)piperidin-3-yl)(5-fluoro-2-methylphenyl)methoxy)ethylcarbamate]
